The values below come from US5880146A, “Inhibition of IL-12-induced IFN-γ synthesis by specific bis-phenol compounds as a method of immune modulation” (Fuji ImmunoPharmaceuticals Corporation, priority 1995, dated 1999).

Structures are written as SMILES.

Data set [1] in a line: Cell viability (MTS) after treatment with bis-compound. Format: cell-based. As to conditions: human, pha-activated pbmc, 5 μg/ml. On the procedure:
Human peripheral blood monocytes (PBMC) were obtained from commercial sources as a leukophoresis from a healthy volunteer and were purified by centrifugation on a Ficoll-Hypaque (Pharmacia) gradient (1700 rpm for 20 min). The "buffy" coat containing the PBMC was diluted with serum-free culture medium (SF-RPMI) to a volume of 50 ml and collected by centrifugation at 1500 rpm for 5 min. Cells were resuspended in cell culture medium containing 10% fetal bovine serum (RPMI-10) and phytohemaglutinin (PHA - 10 μg/ml) at a density of 5×10^6 cells/ml and were cultured for 3 days at 37° C. in a humidified CO2 incubator. The PHA-activated cells were collected by centrifugation, washed three times with an equal volume of SF-RPMI and resuspended in fresh RPMI-10 (1×10^6 cells /ml). Aliquots (100 μl) were dispensed into the wells of multiple 96-well plates to give a final cell number of 10^5 per well. Test compounds, dissolved in dimethyl sulfoxide (DMSO) at 1 mg/ml, were first diluted in culture medium to an intermediate concentration of 20 μg/ml and then were added (50 μwell) to a specific well of the plate for each compound. Stimulation medium (50 μl/well) containing 10% serum, IL-2 and IL-12 was added to final concentrations of 25 U/ml and 0.5 ng/ml, respectively. Control wells receive no IL-2 or IL-12 (negative control) or received both interleukins but no test compound (positive control). The plates were incubated for 48 hr at 37° C. in a CO2 incubator at which time aliquots (20 μl) were removed for analysis of IFN-γ concentration by ELISA. A quantitative ELISA was developed by coating 96-well plates with an mouse monoclonal antibody against human IFN-γ, 1 μg/ml in phosphate buffered saline (PBS) (Pestka Biological Laboratories), overnight at 4° C. Unbound antibody was washed off by washing three times with PBS. Non-specific antibody binding was blocked with a solution of 1% bovine serum albumin (BSA) and 1% goat serum in PBS (150 μl/well) which was incubated for 2 hr at 37° C. After washing the blocked plates four times with PBS, test samples and dilutions of the IFN-γ standard are added in a final volume of 100 μl/well. Following an overnight incubation at 4° C., the plates are washed four times with PBS, and a polyclonal rabbit antiserum against human IFN-γ (1/10000 dilution--Petska Biological Laboratories) is added. After an additional incubation for 1 hr at 37° C. and four washes with PBS, a polyclonal donkey anti-rabbit detecting antibody, conjugated to horseradish peroxidase (1/700 dilution--Petska Biological Laboratories) is added for 1 hr at 37° C. The plates are then washed four times with PBS and 100 μl of K-blue substrate E(ILISA Technologies, Neogen Corp.) is added until the color in the wells containing the standard curve is sufficiently developed, at which time 100 μl of "Red-stop" solution (ELISA Technologies) is added. The absorbance of the solution within each well of the plate is then read at 650 nm using an ELISA plate reader (Dynatech MR7000). The amount of IFN-γ is calculated by comparing the optical density of the test sample with a standard curve derived from the dilutions of the control IFN-y. […] MTS is a chemical chromophore that is metabolized in the mitochondria of viable cells to produce a color which increases in intensity in proportion to the numbers of viable cells. The absorbance of the cell culture can be compared to control cultures in order to determine the percent viability.

Data set [2] has as its system IL-12 induction of IFN-γ in PHA-activated human PBMC. Nature of the data set: Screening assay for compounds which inhibit IL-12 induction of IFN-γ (ELISA). It counts as cell-based. As to conditions: 5 μg/ml, IL-2 25 U/ml + IL-12 0.5 ng/ml, 48 hr, single test, read-out: % INH of IFNγ. On the procedure:
Human peripheral blood monocytes (PBMC) were obtained from commercial sources as a leukophoresis from a healthy volunteer and were purified by centrifugation on a Ficoll-Hypaque (Pharmacia) gradient (1700 rpm for 20 min). The "buffy" coat containing the PBMC was diluted with serum-free culture medium (SF-RPMI) to a volume of 50 ml and collected by centrifugation at 1500 rpm for 5 min. Cells were resuspended in cell culture medium containing 10% fetal bovine serum (RPMI-10) and phytohemaglutinin (PHA - 10 μg/ml) at a density of 5×10^6 cells/ml and were cultured for 3 days at 37° C. in a humidified CO2 incubator. The PHA-activated cells were collected by centrifugation, washed three times with an equal volume of SF-RPMI and resuspended in fresh RPMI-10 (1×10^6 cells /ml). Aliquots (100 μl) were dispensed into the wells of multiple 96-well plates to give a final cell number of 10^5 per well. Test compounds, dissolved in dimethyl sulfoxide (DMSO) at 1 mg/ml, were first diluted in culture medium to an intermediate concentration of 20 μg/ml and then were added (50 μwell) to a specific well of the plate for each compound. Stimulation medium (50 μl/well) containing 10% serum, IL-2 and IL-12 was added to final concentrations of 25 U/ml and 0.5 ng/ml, respectively. Control wells receive no IL-2 or IL-12 (negative control) or received both interleukins but no test compound (positive control). The plates were incubated for 48 hr at 37° C. in a CO2 incubator at which time aliquots (20 μl) were removed for analysis of IFN-γ concentration by ELISA. A quantitative ELISA was developed by coating 96-well plates with an mouse monoclonal antibody against human IFN-γ, 1 μg/ml in phosphate buffered saline (PBS) (Pestka Biological Laboratories), overnight at 4° C. Unbound antibody was washed off by washing three times with PBS. Non-specific antibody binding was blocked with a solution of 1% bovine serum albumin (BSA) and 1% goat serum in PBS (150 μl/well) which was incubated for 2 hr at 37° C. After washing the blocked plates four times with PBS, test samples and dilutions of the IFN-γ standard are added in a final volume of 100 μl/well. Following an overnight incubation at 4° C., the plates are washed four times with PBS, and a polyclonal rabbit antiserum against human IFN-γ (1/10000 dilution--Petska Biological Laboratories) is added. After an additional incubation for 1 hr at 37° C. and four washes with PBS, a polyclonal donkey anti-rabbit detecting antibody, conjugated to horseradish peroxidase (1/700 dilution--Petska Biological Laboratories) is added for 1 hr at 37° C. The plates are then washed four times with PBS and 100 μl of K-blue substrate E(ILISA Technologies, Neogen Corp.) is added until the color in the wells containing the standard curve is sufficiently developed, at which time 100 μl of "Red-stop" solution (ELISA Technologies) is added. The absorbance of the solution within each well of the plate is then read at 650 nm using an ELISA plate reader (Dynatech MR7000). The amount of IFN-γ is calculated by comparing the optical density of the test sample with a standard curve derived from the dilutions of the control IFN-y. The amount of IFN-γ that is induced in the presence of both IL-2 and IL-12 generally ranges from 1200-2000 pg/ml while the amount produced in the absence of IL-12 is generally less than 50 pg/ml. Experimental data are shown in Table 2 which discloses a) the percent inhibition of IFNγ production, relative to a […], when the cells have been treated with a bis-compound at a final concentration of 5 μg/ml of the listed bis-compound (%INH or IFNγ) and b) the percent of cells which are viable after the treatment with 5 μg/ml of the various bis-compounds, determined by adding MTS to the media (% Viability). MTS is a chemical chromophore that is metabolized in the mitochondria of viable cells to produce a color which increases in intensity in proportion to the numbers of viable cells. […]

A short description of data set [3]: Toxicity of bis-compounds after single systemic dose. It counts as in vivo. As to conditions: mouse, in vivo; IV; 20% DMSO, 16% cremaphor; conc. sol. 10 mg/ml; single dose.
Another data set has as its system mice. The data set is described as above. Format: in vivo. The following applies: 20% DMSO, 16% cremaphor, 10 mg/ml.

By viability is commonly meant a read-out of living cells in per cent, often relative to untreated cells. Take `Cc1cc(Cl)cc(Cc2cc(Cl)cc(C)c2O)c1O` [Compound 8296]: the viability in data set [1] is 37%. Moreover, in data set [2], the inhibition at 5 µg/mL was found to be 103%. Regarding `CCCC(c1cc(C)cc(C)c1O)c1cc(C)cc(C)c1O` [Compound 51851], the viability in data set [1] amounted to 107%. Moreover, the inhibition at 5 µg/mL in data set [2] is 86%. For `CC(C)(C)c1cc2c(cc1O)C(C)(C)c1cc(O)c(C(C)(C)C)cc1O2` [Compound 53433], in data set [1], the viability was 26%. In data set [2], the inhibition at 5 µg/mL is 97%. The like results for `CC(C)(C)CC(C)(C)c1cc2c(cc1O)C(C)(C)c1cc(O)c(C(C)(C)CC(C)(C)C)cc1O2` [Compound 53437] were, in that order, 85% and 74%. For the compound `Cc1cc(C(c2cc(C)c(O)c(C)c2)c2ccc(O)c(O)c2)cc(C)c1O` [Compound 54004], the viability in data set [1] worked out at 99%. For the same compound, in data set [2], the inhibition at 5 µg/mL is -37%. In the case of `Cc1cc(C(C)c2cc(C)cc(C(C)(C)C)c2O)c(O)c(C(C)(C)C)c1` [Compound 54005], the viability in data set [1] came out at 30%. For the same compound, the inhibition at 5 µg/mL in data set [2] was found to be 96%. For the compound `Cc1cc(O)c(C(C)C)cc1C(c1ccccc1)c1cc(C(C)C)c(O)cc1C` [Compound 54007], the viability in data set [1] turned out to be 26%. Further, the inhibition at 5 µg/mL in data set [2] was 95%. Regarding `CCC(c1cc(C)cc(C(C)(C)C)c1O)c1cc(C)cc(C(C)(C)C)c1O` [Compound 54008], the viability in data set [1] was 69%. Moreover, in data set [2], the inhibition at 5 µg/mL came out at 91%.

Turning to `Cc1cc(C(c2ccc(Cl)cc2)c2cc(C)c(O)c(C)c2)cc(C)c1O` [Compound 54042], the viability in data set [1] was 102%. Besides, in data set [2], the inhibition at 5 µg/mL was 28%.

As a reminder, the LD50 is the dose expected to kill half of the subjects tested. For `Cc1cc(C(C)(C)c2cc(C)c(O)c(C)c2)cc(C)c1O` [Compound 54046], the viability in data set [1] was determined as 95%. The compound also yielded an LD50 in data set [3] of more than 150 mg/kg. Also, the “Results (Dead/Alive)” value in the data set with mice (100 mg/kg IV) and in the data set on mice (150 mg/kg IV) was “Alive” in each case. As for `Cc1cc(C2(c3ccc(O)c(C)c3)CCCCC2)ccc1O` [Compound 54048], the viability in data set [1] stood at 79%. Further, the inhibition at 5 µg/mL in data set [2] amounted to 68%. As for `Cc1cc(C(c2ccc(C(=O)O)cc2)c2cc(C)c(O)c(C)c2)cc(C)c1O` [Compound 54050], the viability in data set [1] is 86%. For the same compound, the inhibition at 5 µg/mL in data set [2] came out at 63%. As for `Cc1cc(C(c2ccc([N+](=O)[O-])cc2)c2cc(C)c(O)c(C(C)(C)C)c2)cc(C(C)(C)C)c1O` [Compound 54053], the viability in data set [1] turned out to be 33%. In addition, the inhibition at 5 µg/mL in data set [2] came out at 93%. Take `Cc1cc(C(C)c2cc(C)c(O)c(C(C)(C)C)c2)cc(C(C)(C)C)c1O` [Compound 54054]: the viability in data set [1] turned out to be 27%. For the same compound, the inhibition at 5 µg/mL in data set [2] was 98%. In the case of `CC(C)(C)c1cc(C(c2ccc(C(=O)O)cc2)c2cc(C(C)(C)C)c(O)c(C(C)(C)C)c2)cc(C(C)(C)C)c1O` [Compound 54055], the viability in data set [1] worked out at 88%. The inhibition at 5 µg/mL in data set [2] was 83%. Regarding `CCC(C)(c1cc(C)c(O)c(C)c1)c1cc(C)c(O)c(C)c1` [Compound 54056], in data set [1], the viability was determined as 87%. The inhibition at 5 µg/mL in data set [2] stood at 84%. With `Cc1cc(C(c2ccccc2)c2cc(C)c(O)c(C(C)(C)C)c2)cc(C(C)(C)C)c1O` [Compound 54058], the viability in data set [1] came to 86%. Moreover, the inhibition at 5 µg/mL in data set [2] came out at 88%. With `CCCCCCC(C)(c1ccc(O)cc1)c1ccc(O)c(C)c1` (stereo not drawn) [Compound 54059], in data set [1], the viability is 88%. In addition, the inhibition at 5 µg/mL in data set [2] is 64%. Regarding `CCCC(C)(c1ccc(O)cc1)c1ccc(O)c(C)c1` (stereo not drawn) [Compound 54063], the viability in data set [1] was 93%.

As to `CCCCCCC(C)(c1ccc(O)c(C)c1)c1ccc(O)c(C)c1` [Compound 54094], the viability in data set [1] was found to be 25%. The same measure, in the same setting: in the case of `CCCC(CCC)(c1ccc(O)cc1)c1ccc(O)c(C)c1` [Compound 54099] it was 93%. As for `CCC(c1cc(C)c(O)c(C(C)C)c1)c1cc(C)c(O)c(C(C)C)c1` [Compound 54109], the viability in data set [1] stood at 33%. Also, the inhibition at 5 µg/mL in data set [2] came to 93%. For the compound `Cc1cc(C(c2ccc(C(C)C)cc2)c2cc(C)c(O)c(C)c2)cc(C)c1O` [Compound 54114], in data set [1], the viability was 96%. Also, in data set [2], the inhibition at 5 µg/mL stood at 65%. Turning to `Cc1cc(C(c2ccc(C(=O)O)cc2)c2cc(C)c(O)c(C(C)(C)C)c2)cc(C(C)(C)C)c1O` [Compound 54346], the viability in data set [1] worked out at 84%. In addition, the inhibition at 5 µg/mL in data set [2] turned out to be 91%. As to `CCC(c1cc(C)c(O)c(C)c1)c1cc(C)c(O)c(C)c1` [Compound 54471], in data set [1], the viability was determined as 83%. Further, the inhibition at 5 µg/mL in data set [2] was determined as 89%. Regarding `CCC(c1cc(C)c(O)c(C(C)(C)C)c1)c1cc(C)c(O)c(C(C)(C)C)c1` [Compound 54472], in data set [1], the viability was determined as 26%. Further, the inhibition at 5 µg/mL in data set [2] was determined as 98%.
